Data from patent US10793526B2, “Hydantoin derivative compounds, methods of use and methods of treatment” (University of South Florida, priority 2016, dated 2020).
≈ marks a conversion by molar mass, not a printed value.

How the values were obtained:
[1] = test system: ovarian cancer cells (C13); assay: Selectivity for mammalian cells, C13; type: cell-based; details: Homo sapiens, read-out: IC50 toward ovarian cancer cells (C13)
[2] = test system: P. aeruginosa (ATCC 27853); assay: Minimum inhibitory concentration (MIC) assay, P. aeruginosa; type: cell-based, Pseudomonas aeruginosa
Description: (§1) Minimum inhibitory concentrations (MICs) assay.^2
(§2) All compounds were tested against six different bacteria strains: methicillin-resistant S. aureus (MRSA, ATCC 33591), E. coli (ATCC 25922), methicillin-resistant S. epidermidis (MRSE, RP62A), K. pneumoniae (ATCC 13383), vancomycin-resistant Enterococcus faecalis (VREF, ATCC 700802), P. aeruginosa (ATCC 27853). One colony of each bacteria was inoculated in 4 mL TSB buffer at 37° C. overnight, which was then diluted 100 times, and the bacteria were allowed to grow to the mid-logarithmic phase. 50 μL hydantoin compounds in 2-fold serial dilution of TSB were added in the 96-well plate, then 50 μL diluted bacterial in TSB medium (1×10^6 CFU/mL) was added to each well. After 16 h of incubation at 37° C., the absorption at 600 nm wavelength on a Biotek Synergy HT microtiter plate reader was recorded. Minimum inhibitory concentrations were determined as the lowest concentrations that inhibited bacteria growth completely.

[3] = test system: K. pneumoniae (ATCC 13383); assay: Minimum inhibitory concentration (MIC) assay, K. pneumoniae; type: cell-based, Klebsiella pneumoniae; details: Klebsiella pneumoniae, ATCC13383, Gram negative, 16 h incubation, read-out: MIC (μg/mL) K.P.
Description: as §1, §2

MRSA [4] = assay: Fluorescence microscopy (DAPI/PI) membrane damage, MRSA; type: cell-based, Staphylococcus aureus; details: 5 μg/mL, 2 h
Description: After centrifugation for 15 min at 5000 rpm, cell pellets were washed with 1×PBS buffer, and incubated with PI (5 μg/mL) for 15 min on ice in the dark, then washed 2 times with PBS. Then the cell pellets were incubated with DAPI (10 μg/mL) in the similar way. The pellets were then diluted in 100 μL PBS, and 10-20 μL of the suspension was applied on chamber slides and observed under Zeiss Axio Image Zloptical microscope using 100× oil-immersion objective.

[5] = test system: vancomycin-resistant Enterococcus faecalis (VREF, ATCC 700802); assay: Minimum inhibitory concentration (MIC) assay, VREF; type: cell-based; details: Enterococcus faecalis, ATCC700802, Gram positive, 16 h incubation, read-out: MIC (μg/mL) VREF
Description: as §1, §2

MRSA [6] = assay: Time kill assay, MRSA; type: cell-based, Staphylococcus aureus
Description: (§3) Bacteria MRSA (Gram-positive) and E. coli (Gram-negative) suspensions were allowed to grow at 37° C. to the mid-logarithmic phase, and diluted to 1×10^6 CFU/mL, then incubated with the compound 22 at the concentration of 50, 25, 12.5 μg/mL at 10 min, 30 min, 1 h and 2 h, respectively. The resulted mixture was then diluted by 10^2 to 10^4 fold, from which 100 μL was spread on the TSB agar plate. The Number of bacteria colonies was counted after 20 h of incubation at 37° C.

E. coli (ATCC 25922) = assay: Minimum inhibitory concentration (MIC) assay, E. coli; type: cell-based, Escherichia coli; details: Escherichia coli, ATCC25922, Gram negative, 16 h incubation, read-out: MIC (μg/mL) E. coli
Description: as §1, §2

MRSA [7] = assay: Drug resistance assay; type: cell-based, Staphylococcus aureus
Description: The lead compound 22 was chosen for drug resistance studies. Briefly, after its MIC against MRSA was determined, the bacteria solution from the well of the ½ MIC was withdrawn and diluted to 1×10^6 CFU/mL for the next MIC measurement. The measurement was repeated for 14 passages.

[8] = test system: panel of Gram-positive and Gram-negative bacteria; assay: Antimicrobial activity against the whole panel of bacteria; type: cell-based; details: all tested strains; read-out: MICs against all tested Gram-positive and Gram-negative strains
Description: as §1, §2

[9] = test system: methicillin-resistant S. epidermidis (MRSE, RP62A); assay: Minimum inhibitory concentration (MIC) assay, MRSE; type: cell-based, Staphylococcus epidermidis; details: Staphylococcus epidermidis, MRSE, Gram positive, 16 h incubation, read-out: MIC (μg/mL) MRSE
Description: as §1, §2

[10] = test system: MRSA-induced lung inflammation; assay: Rat model of MRSA-induced pneumonia, pathological analysis (H&E); type: in vivo; details: 10 mg/kg i.v.
Description: (§4) The rat model of MRSA-induced pneumonia.^4, 5
(§5) The protocol of animal studies was approved by the institutional committee for animal care of Nanjing University, and the experiments were conducted following the regulation of the National Ministry of Health of China. In Brief, male Wistar rats (6-8 weeks, ˜200 g in average weight) were subjected to fast for 12 h. Next, rats were anesthetized by intraperitoneal administration of 0.35 g/kg of chloral hydrate. To induce MRSA pneumonia, the trachea of rats were exposed, to which 100 μL PBS containing 2×10^6 CFU/mL MRSA in PBS was slowly injected. The rats were retained upright for 1 min, and the cut was sealed. The MRSA infection was allowed to develop for 24 h.
The hydantoin compound 22 or vancomycin were used as antibiotics in the study. In brief, a dose of 10 mg/kg of the drug was injected to the tested rats intravenously. On the day of 3 and 5, rats were sacrificed, and lung sections were stained with hematoxylin and eosin (H&E), and their morphology was investigated under a light microscope at 100× magnification. The existence (indicated by the infiltration of neutrophils) and the extent of possible inflammatory response (indicated by the integrity of the alveolar structure and endothelium cilium) were recorded from at least five randomly picked sections by an experienced physician.

MRSA [11] = assay: Rat model of MRSA-induced pneumonia, bacterial count in lungs; type: in vivo; details: 10 mg/kg i.v.
Description: as §4, §5
Bronchoalveolar lavage (BAL) assay.
The assay was carried out to quantify the bacteria in the lungs of rats. The thorax of rats was opened, and the lungs were collected in each group at different time points. Then the lungs were malleated and homogenized by a glass homogenizer, and diluted with PBS to the determined volume. After that, 10 μL solution was picked up, diluted with PBS by 100-fold, and daubed on the isolation medium. Bacteria were counted in each sample after incubation for 24 h at 37° C., from which the number of bacteria (colonies/g tissue) was calculated.

E. coli = assay: Time kill assay, E. coli; type: cell-based, Escherichia coli
Description: as §3, with “[…],” for “then incubated with the compound 22 at the concentration of 50, 25, 12.5 μg/mL at 10 min,”

CCCCCCCCCCCC(=O)N[C@@H](CCCCN)CN1CC(=O)N(c2cccc(Cl)c2)C1=O [Compound 22, (S)—N-(6-amino-1-(3-(3-chlorophenyl)-2,4-dioxoimidazolidin-1-yl)hexan-2-yl)dodecanamide]
IC50 [1]: 90 µg/mL (≈ 177 µM)
MIC ([2]; Pseudomonas aeruginosa, ATCC27853, Gram negative, ATCC 27853, 16 h incubation, read-out: MIC (μg/mL) P.A.): 1 µg/mL
effectiveness toward P. aeruginosa compared with nitrofurantoin ([2]; ratio of MICs): at least 50 fold
MIC [3]: 0.78 µg/mL
membrane damage of MRSA (DAPI/PI staining) (MRSA [4]): membranes of both MRSA and E. coli were damaged
MIC [5]: 0.5 µg/mL
time to completely eradicate MRSA (MRSA [6]; 2.0 μg/mL (4×MIC)): 60 min
time to completely eradicate MRSA (MRSA [6]; 25 μg/mL): 10 min
MIC (E. coli (ATCC 25922)): 1 µg/mL
MIC against MRSA after 14 passages at half MIC (MRSA [7]): virtually remain unchanged
MIC [8]: < 1 µg/mL
MIC [9]: 0.5 µg/mL
lung inflammation (H&E staining), day 3 ([10]; day 3): only mild inflammation
lung inflammation (H&E staining), day 5 ([10]; day 5): virtually the normal condition
reduction of bacteria compared with the control, day 5 (MRSA [11]): 96%
time to completely eradicate E. coli (E. coli; 4.0 μg/mL (4×MIC)): 60 min
time to eradicate all E. coli (E. coli; 25 μg/mL): 30 min
time to eradicate all E. coli (E. coli; 50 μg/mL): 30 min
